Measured values taken from the supplement of paper PMC10733146.

Assays:
Assay in all cases: viability relative to DMSO control (fraction); higher = less drug effect (more viable cells)
Conditions in all cases: 48 h
[1] = system: primary AML patient cells (S006)
How it was run: (§1)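 Primary mononuclear tumour cells (Ficoll-isolated from blood or bone marrow, or processed lymph node; fresh or cryopreserved) were plated at 4 × 10^4 cells per well in 384-well plates with pre-plated compounds at five concentrations, one well each. Medium was RPMI-1640 with penicillin/streptomycin, L-glutamine and human serum, at 37 °C and 5% CO2 for 48 h. Viability was read as CellTiter-Glo luminescence relative to the median of 16 inner DMSO wells.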

[2] = system: primary AML patient cells (S011)
How it was run: as §1

[3] = system: primary AML patient cells (S012)
How it was run: as §1

[4] = system: primary AML patient cells (S037)
How it was run: as §1

[5] = system: primary AML patient cells (S056)
How it was run: as §1

[6] = system: primary AML patient cells (S081)
How it was run: as §1

[7] = system: primary AML patient cells (S085)
How it was run: as §1

[8] = system: primary BL patient cells (S005)
How it was run: as §1

[9] = system: primary CLL patient cells (S031)
How it was run: as §1

[10] = system: primary CLL patient cells (S043)
How it was run: as §1

[11] = system: primary DLBCL patient cells (S049)
How it was run: as §1

[12] = system: primary DLBCL patient cells (S076)
How it was run: as §1

[13] = system: primary MCL patient cells (S041)
How it was run: as §1

[14] = system: primary MCL patient cells (S063)
How it was run: as §1

[15] = system: primary MCL patient cells (S068)
How it was run: as §1

[16] = system: primary T-NHL patient cells (S058)
How it was run: as §1

[17] = system: primary T-PLL patient cells (S008)
How it was run: as §1

SMILES: Oc1ccc(/C=C/c2cc(O)cc(O)c2)cc1 [Resveratrol]
- viability ([1]; 0.024 µM): 0.862
- viability ([1]; 0.12 µM): 0.866
- viability ([1]; 0.6 µM): 0.845
- viability ([1]; 3 µM): 0.872
- viability ([1]; 15 µM): 0.804
- viability ([2]; 0.024 µM): 0.808
- viability ([2]; 0.12 µM): 0.789
- viability ([2]; 0.6 µM): 0.757
- viability ([2]; 3 µM): 0.747
- viability ([2]; 15 µM): 0.682
- viability ([3]; 0.024 µM): 0.981
- viability ([3]; 0.12 µM): 1.02
- viability ([3]; 0.6 µM): 0.972
- viability ([3]; 3 µM): 0.957
- viability ([3]; 15 µM): 0.986
- viability ([4]; 0.024 µM): 0.792
- viability ([4]; 0.12 µM): 0.994
- viability ([4]; 0.6 µM): 0.881
- viability ([4]; 3 µM): 0.84
- viability ([4]; 15 µM): 0.96
- viability ([5]; 0.024 µM): 0.714
- viability ([5]; 0.12 µM): 0.966
- viability ([5]; 0.6 µM): 0.645
- viability ([5]; 3 µM): 0.596
- viability ([5]; 15 µM): 0.466
- viability ([6]; 0.024 µM): 0.814
- viability ([6]; 0.12 µM): 0.846
- viability ([6]; 0.6 µM): 0.806
- viability ([6]; 3 µM): 0.762
- viability ([6]; 15 µM): 0.794
- viability ([7]; 0.024 µM): 0.783
- viability ([7]; 0.12 µM): 0.735
- viability ([7]; 0.6 µM): 0.819
- viability ([7]; 3 µM): 0.735
- viability ([7]; 15 µM): 0.658
- viability ([8]; 0.024 µM): 0.942
- viability ([8]; 0.12 µM): 0.954
- viability ([8]; 0.6 µM): 0.921
- viability ([8]; 3 µM): 0.9
- viability ([8]; 15 µM): 0.828
- viability ([9]; 0.024 µM): 0.761
- viability ([9]; 0.12 µM): 0.766
- viability ([9]; 0.6 µM): 0.744
- viability ([9]; 3 µM): 0.67
- viability ([9]; 15 µM): 0.553
- viability ([10]; 0.024 µM): 0.825
- viability ([10]; 0.12 µM): 0.864
- viability ([10]; 0.6 µM): 0.821
- viability ([10]; 3 µM): 0.799
- viability ([10]; 15 µM): 0.711
- viability ([11]; 0.024 µM): 0.849
- viability ([11]; 0.12 µM): 0.846
- viability ([11]; 0.6 µM): 0.826
- viability ([11]; 3 µM): 0.732
- viability ([11]; 15 µM): 0.711
- viability ([12]; 0.024 µM): 0.961
- viability ([12]; 0.12 µM): 0.963
- viability ([12]; 0.6 µM): 0.955
- viability ([12]; 3 µM): 0.94
- viability ([12]; 15 µM): 0.882
- viability ([13]; 0.024 µM): 0.948
- viability ([13]; 0.12 µM): 0.904
- viability ([13]; 0.6 µM): 0.904
- viability ([13]; 3 µM): 0.896
- viability ([13]; 15 µM): 0.77
- viability ([14]; 0.024 µM): 0.862
- viability ([14]; 0.12 µM): 0.858
- viability ([14]; 0.6 µM): 0.863
- viability ([14]; 3 µM): 0.854
- viability ([14]; 15 µM): 0.825
- viability ([15]; 0.024 µM): 0.614
- viability ([15]; 0.12 µM): 0.63
- viability ([15]; 0.6 µM): 0.639
- viability ([15]; 3 µM): 0.7
- viability ([15]; 15 µM): 1.16
- viability ([16]; 0.024 µM): 0.917
- viability ([16]; 0.12 µM): 0.998
- viability ([16]; 0.6 µM): 0.957
- viability ([16]; 3 µM): 0.895
- viability ([16]; 15 µM): 0.948
- viability ([17]; 0.024 µM): 1
- viability ([17]; 0.12 µM): 1.02
- viability ([17]; 0.6 µM): 0.915
- viability ([17]; 3 µM): 0.966
- viability ([17]; 15 µM): 0.897
